The source of these data is patent publication US10206907B2, “Compounds useful for the treatment of degenerative and inflammatory diseases” (GALAPAGOS NV, priority 2008, dated 2019).

pIC50: −log10 of the molar value.

A word on the pIC50: it is the negative decadic logarithm of the IC50, by convention in mol/L.

Assay [1] addresses Recombinant human JAK2 catalytic domain (Homo sapiens (Human), UniProt O60674). Nature of the assay: JAK2 inhibition assay. Format: biochemical. As to conditions: semi-quantitative score. As to the method:
After 90 min at 30° C., reactions were stopped by adding of 25 μL/well of 150 mM phosphoric acid. […] Plates were washed 6 times with 300 μL per well of a 75 mM phosphoric acid solution and the bottom of the plates was sealed. 40 μL/well of Microscint-20 was added, the top of the plates was sealed and readout was performed using the Topcount (Perkin Elmer). Kinase activity was calculated by subtracting counts per minute (cpm) obtained in the presence of a positive control inhibitor (10 μM staurosporine) from cpm obtained in the presence of vehicle. The ability of a test compound to inhibit this activity was determined as: Percentage inhibition=((cpm determined for sample with test compound present−cpm determined for sample with positive control inhibitor) divided by (cpm determined in the presence of vehicle−cpm determined for sample with positive control inhibitor))*100%.
Dose dilution series were prepared for the compounds enabling the testing of dose-response effects in the JAK2 assay and the calculation of the IC50 for each compound.

In assay [2] the target is Recombinant human JAK1 catalytic domain (Homo sapiens (Human), UniProt P23458). The experiment in a line: JAK1 inhibition assay. Format: biochemical. As to conditions: semi-quantitative score. Summed up:
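Radiometric assay read by scintillation counting after phosphoric-acid washes. Percent inhibition calculated from cpm relative to vehicle and 10 μM staurosporine control. IC50 derived from compound dose-dilution series.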

Recombinant human JAK2 catalytic domain, sequence (O60674 808-1132): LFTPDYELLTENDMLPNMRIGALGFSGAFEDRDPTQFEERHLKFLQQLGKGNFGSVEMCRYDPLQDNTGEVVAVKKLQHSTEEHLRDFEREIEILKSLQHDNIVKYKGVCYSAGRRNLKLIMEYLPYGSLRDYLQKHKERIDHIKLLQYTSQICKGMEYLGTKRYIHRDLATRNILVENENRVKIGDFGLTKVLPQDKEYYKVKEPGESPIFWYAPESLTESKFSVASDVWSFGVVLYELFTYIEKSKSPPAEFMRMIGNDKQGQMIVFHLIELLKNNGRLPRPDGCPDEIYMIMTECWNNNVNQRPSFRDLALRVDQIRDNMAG
Recombinant human JAK1 catalytic domain, sequence (P23458 850-1154): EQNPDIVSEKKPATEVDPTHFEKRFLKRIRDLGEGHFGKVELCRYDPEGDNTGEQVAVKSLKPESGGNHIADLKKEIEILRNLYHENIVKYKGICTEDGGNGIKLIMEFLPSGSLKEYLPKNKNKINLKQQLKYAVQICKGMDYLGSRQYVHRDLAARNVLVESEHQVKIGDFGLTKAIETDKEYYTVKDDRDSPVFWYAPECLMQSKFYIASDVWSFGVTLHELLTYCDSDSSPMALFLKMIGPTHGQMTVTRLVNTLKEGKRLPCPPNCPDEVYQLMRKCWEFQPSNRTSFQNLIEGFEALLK

For the molecule `O=C(Nc1nc2cccc(-c3ccc(CN4CCC(CO)CC4)cc3)n2n1)C1CC1` [Compound 250, Cyclopropanecarboxylic acid {5-[4-(4-hydroxymethyl-piperidin-1-ylmethyl)-phenyl]-[1,2,4]triazolo[1,5-a]pyridin-2-yl}-amide], the pIC50 is 6.00 to 6.30 in assay [1] and 6.30 to 7.00 in assay [2].

Regarding `O=C(Nc1nc2cccc(-c3ccc(CN4CC(N5CCOCC5)C4)cc3)n2n1)C1CC1` [Compound 300, Cyclopropanecarboxylic acid {5-[4-(3-morpholin-4-yl-azetidin-1-ylmethyl)-phenyl]-[1,2,4]triazolo[1,5-a]pyridin-2-yl}-amide], the pIC50 in assay [1] and in assay [2] was below 6.00 each time.

In the case of `CCN(CC)C(=O)C1CCCN(C(=O)c2ccc(-c3cccc4nc(NC(=O)C5CC5)nn34)cc2)C1` (stereo not shown) [Compound 295, 1-{4-[2-(Cyclopropanecarbonyl-amino)-[1,2,4]triazolo[1,5-a]pyridin-5-yl]-benzoyl}-piperidine-3-carboxylic acid diethylamide], the pIC50 was below 6.00 in assay [1] and 6.30 to 7.00 in assay [2].

For `O=C(Nc1nc2cccc(-c3ccc(C(=O)N4CCC(C(=O)N5CCOCC5)CC4)cc3)n2n1)C1CC1` [Compound 219, Cyclopropanecarboxylic acid (5-{4-[4-(morpholine-4-carbony)-piperidine-1-carbonyl]-phenyl}-[1,2,4]triazolo[1,5-a]pyridin-2-yl)-amide], the pIC50 in assay [1] and in assay [2] was below 6.00 each time.

In the case of `O=C(Nc1nc2cccc(-c3ccc(CN4CC[C@@H](O)C4)cc3)n2n1)C1CC1` [Compound 307, Cyclopropanecarboxylic acid {5-[4-((R)-3-hydroxy-pyrrolidin-1-ylmethyl)-phenyl]-[1,2,4]triazolo[1,5-a]pyridin-2-yl}-amide], the pIC50 in assay [1] was below 6.00; in assay [2], 6.30 to 7.00.

With `O=C(Nc1nc2cccc(-c3ccc(CN4CCC(F)(F)C4)cc3)n2n1)C1CC1` [Compound 264, Cyclopropanecarboxylic acid {5-[4-(3,3-difluoro-pyrrolidin-1-ylmethyl)-phenyl]-[1,2,4]triazolo[1,5-a]pyridin-2-yl}-amide], the negative logarithm of the IC50 (pIC50) in assay [1] is 6.30 to 7.00.

`O=C(Nc1nc2cccc(-c3ccc(CN4CC[C@H](O)C4)cc3)n2n1)C1CC1` [Compound 305, Cyclopropanecarboxylic acid {5-[4-((S)-3-hydroxy-pyrrolidin-1-ylmethyl)-phenyl]-[1,2,4]triazolo[1,5-a]pyridin-2-yl}-amide]: the pIC50 in assay [1] is below 6.00; in assay [2], 6.30 to 7.00.

As for `O=C(Nc1nc2cccc(-c3ccc(CNc4ccccc4)cc3)n2n1)C1CC1` [Compound 261, Cyclopropanecarboxylic acid [5-(4-phenylaminomethyl-phenyl)-[1,2,4]triazolo[1,5-a]pyridin-2-yl]-amide], the pIC50 in assay [1] is 6.30 to 7.00.

In the case of `CC(=O)N1CCN(C(=O)c2ccc(-c3cccc4nc(NC(=O)C5CC5)nn34)cc2)CC1` [Compound 220, Cyclopropanecarboxylic acid {5-[4-(4-acetyl-piperazine-1-carbonyl)-phenyl]-[1,2,4]triazolo[1,5-a]pyridin-2-yl}-amide], the pIC50 is 6.00 to 6.30 in assay [1] and 6.30 to 7.00 in assay [2].

In the case of `O=C(Nc1nc2cccc(-c3ccc(CNc4ccc(N5CCOCC5)nc4)cc3)n2n1)C1CC1` [Compound 237, Cyclopropanecarboxylic acid (5-{4-[(6-morpholin-4-yl-pyridin-3-ylamino)-methyl]-phenyl}-[1,2,4]triazolo[1,5-a]pyridin-2-yl)-amide], the pIC50 in assay [1] is 6.00 to 6.30; in assay [2] it was 6.30 to 7.00.

Take `O=C(Nc1nc2cccc(-c3ccc(CNC(=O)N4CCOCC4)cc3)n2n1)C1CC1` [Compound 309, Morpholine-4-carboxylic acid 4-[2-(cyclopropanecarbonyl-amino)-[1,2,4]triazolo[1,5-a]pyridin-5-yl]-benzylamide]: the pIC50 was 6.00 to 6.30 in assay [1] and 6.30 to 7.00 in assay [2].

Take `CN1CCN(c2ccc(NC(=O)c3ccc(-c4cccc5nc(NC(=O)C6CC6)nn45)cc3)cn2)CC1` [Compound 205, 4-[2-(Cyclopropanecarbonyl-amino)-[1,2,4]triazolo[1,5-a]pyridin-5-yl]-N-[6-(4-methyl-piperazin-1-yl)-pyridin-3-yl]-benzamide]: the pIC50 in assay [1] was 6.00 to 6.30; in assay [2], 6.30 to 7.00.

Regarding `O=C(Nc1nc2cccc(-c3ccc(C(=O)N4C[C@@H]5C[C@H]4CO5)cc3)n2n1)C1CC1` [Compound 217, Cyclopropanecarboxylic acid {5-[4-((1S,4S)-2-oxa-5-aza-bicyclo[2.2.1]heptane-5-carbonyl)-phenyl]-[1,2,4]triazolo[1,5-a]pyridin-2-yl}-amide], the pIC50 in assay [1] was 6.00 to 6.30; in assay [2] it was 6.30 to 7.00.

Turning to `CN(C)C1CCN(Cc2ccc(-c3cccc4nc(NC(=O)C5CC5)nn34)cc2)C1` (stereo not shown) [Compound 263], the pIC50 in assay [1] was 6.30 to 7.00.

On to `NC(=O)C1CCN(C(=O)c2ccc(-c3cccc4nc(NC(=O)C5CC5)nn34)cc2)CC1` [Compound 274, 1-{4-[2-(Cyclopropanecarbonyl-amino)-[1,2,4]triazolo[1,5-a]pyridin-5-yl]-benzoyl}-piperidine-4-carboxylic acid amide], for which the pIC50 in assay [1] was 6.00 to 6.30; in assay [2], 6.30 to 7.00.

Take `O=C(Nc1nc2cccc(-c3ccc(CN4CCOCC4=O)cc3)n2n1)C1CC1` [Compound 254, Cyclopropanecarboxylic Acid {5-[4-(3-oxo-morpholin-4-ylmethyl)-phenyl]-[1,2,4]triazolo[1,5-a]pyridin-2-yl}-amide]: in assay [1], the pIC50 was 6.00 to 6.30.

With `CC(=O)N(C)C1CCN(Cc2ccc(-c3cccc4nc(NC(=O)C5CC5)nn34)cc2)C1` (stereo not shown) [Compound 262, Cyclopropanecarboxylic acid (5-{4-[3-(acetyl-methyl-amino)-pyrrolidin-1-ylmethyl]-phenyl}-[1,2,4]triazolo[1,5-a]pyridin-2-yl)-amide], the pIC50 in assay [1] is 6.30 to 7.00.

Regarding `Cc1ccc(NCc2ccc(-c3cccc4nc(NC(=O)C5CC5)nn34)cc2)c(F)n1` [Compound 256, Cyclopropanecarboxylic acid (5-{4-[(2-fluoro-6-methyl-pyridin-3-ylamino)-methyl]-phenyl}-[1,2,4]triazolo[1,5-a]pyridin-2-yl)-amide], in assay [1], the pIC50 was 6.30 to 7.00.

On to `CCN1C[C@H]2C[C@@H]1CN2Cc1ccc(-c2cccc3nc(NC(=O)C4CC4)nn23)cc1` [Compound 253, Cyclopropanecarboxylic acid {5-[4-((1R,4R)-5-ethyl-2,5-diaza-bicyclo[2.2.1]hept-2-ylmethyl)-phenyl]-[1,2,4]triazolo[1,5-a]pyridin-2-yl}-amide], for which the negative logarithm of the IC50 (pIC50) in assay [1] was 6.00 to 6.30.

Consider `NC(=O)c1cccc(OCc2ccc(-c3cccc4nc(NC(=O)C5CC5)nn34)cc2)c1` [Compound 251, 3-{4-[2-(Cyclopropanecarbonyl-amino)-[1,2,4]triazolo[1,5-a]pyridin-5-yl]-benzyloxy}-benzamide], for which the pIC50 in assay [1] is 6.30 to 7.00.

Turning to `N#Cc1ccc(NCc2ccc(-c3cccc4nc(NC(=O)C5CC5)nn34)cc2)c(F)c1` [Compound 258, Cyclopropanecarboxylic acid (5-{4-[(4-cyano-2-fluoro-phenylamino)-methyl]-phenyl}-[1,2,4]triazolo[1,5-a]pyridin-2-yl)-amide], in assay [1], the pIC50 is above 7.00.

As to `N#CCN(CCc1ccccc1)C(=O)c1ccc(-c2cccc3nc(NC(=O)C4CC4)nn23)cc1` [Compound 181, N-(cyanomethyl)-4-(2-(cyclopropanecarboxamido)-[1,2,4]triazolo[1,5-a]pyridin-5-yl)-N-phenethylbenzamide], the pIC50 in assay [2] is 6.30 to 7.00.

With `CN1CCN(Cc2ccc(COc3ccc(-c4cccc5nc(NC(=O)C6CC6)nn45)cc3)cc2)CC1` [Compound 126, N-(5-(4-(4-((4-methylpiperazin-1-yl)methyl)benzyloxy)phenyl)-[1,2,4]triazolo[1,5-a]pyridin-2-yl)cyclopropanecarboxamide], the negative logarithm of the IC50 (pIC50) in assay [2] was 6.30 to 7.00.

With `CN1CCN(c2ccc(COc3ccc(-c4cccc5nc(NC(=O)C6CC6)nn45)cc3)cn2)CC1` [Compound 167, N-(5-(4-((6-(4-methylpiperazin-1-yl)pyridin-3-yl)methoxy)phenyl)-[1,2,4]triazolo[1,5-a]pyridin-2-yl)cyclopropanecarboxamide], the pIC50 in assay [2] was 6.30 to 7.00.

As for `O=C(Nc1nc2cccc(-c3ccc(NS(=O)(=O)Cc4ccccc4)nc3)n2n1)C1CC1` [Compound 184, N-(5-(6-(phenylmethylsulfonamido)pyridin-3-yl)-[1,2,4]triazolo[1,5-a]pyridin-2-yl)cyclopropanecarboxamide], the pIC50 in assay [2] was below 6.00.

On to `COc1ccc(C(N)=O)cc1NCc1ccc(-c2cccc3nc(NC(=O)C4CC4)nn23)cc1` [Compound 255, 3-{4-[2-(Cyclopropanecarbonyl-amino)-[1,2,4]triazolo[1,5-a]pyridin-5-yl]-benzylamino}-4-methoxy-benzamide], for which the pIC50 in assay [1] was 6.00 to 6.30.

Take `O=C(Nc1nc2cccc(-c3ccc(OCc4nnn[nH]4)cc3)n2n1)C1CC1` [Compound 158]: in assay [2], the pIC50 is 6.30 to 7.00.

With `O=C(Nc1nc2cccc(-c3ccc(CN4CCCC4)cc3)n2n1)C1CC1` [Compound 260, Cyclopropanecarboxylic acid [5-(4-pyrrolidin-1-ylmethyl-phenyl)-[1,2,4]triazolo[1,5-a]pyridin-2-yl]-amide], in assay [1], the pIC50 was 6.30 to 7.00.
